{
  "source": "patent US8796329B2",
  "about": "“Method for controlling angiogenesis in animals” (Ziopharm Oncology, Inc., priority 2006, dated 2014)",
  "key": {"HUVEC (Endothelia) [1]": {"system": "HUVEC (Endothelia)", "assay": "CellTiter-Glo Luminescent Cell Viability Assay, HUVEC", "type": "cell-based", "settings": "Homo sapiens", "experimental": "(§1) CellTiter-Glo Luminescent Cell Viability Assay (Promega Corporation) is based on quantification of ATP levels in cell cultures. The amount of ATP produced in cell culture reflects the number of viable cells. […] HUVECs and LL47 cells were seeded in 96-well plates in their growth medium. After 24 hours, various doses of the compound of formula (II) were added to both cultures side by side, having six replicates for each dose. At different treatment time points, CellTiter-Glo reagent were added to the cultures following the manufacturer's instructions; luminescence signals were measured with an EnVision™ Multilabel Reader (Perkin Elmer, Wellesley, Mass.) The blank control groups were given saline vehicle only, and positive control groups were given 10 μM T-araC (provided by Southern). Data was analyzed for the mean and standard deviation for each treatment condition. IC50 values of the compound of formula (II) against HUVEC and LL47 cell cultures were determined based on the dose response curves as shown in FIG. 1. There were several test drug concentrations with three treatment time points (2, 4, and 6 days). For the 6-day assay experiment, the culture media with different test concentration treatments was exchanged at Day 4."}, "LL47 (Fibroblast)": {"system": "LL47 (Fibroblast)", "assay": "CellTiter-Glo Luminescent Cell Viability Assay, LL47", "type": "cell-based", "settings": "Homo sapiens", "experimental": "as §1"}, "HUVEC (Endothelia) [2]": {"system": "HUVEC (Endothelia)", "assay": "3H-thymidine incorporation assay for HUVEC", "type": "cell-based", "settings": "Homo sapiens", "experimental": "HUVEC cultures were seeded and treated in 96-well plates, as described above for the CellTiter-Glo viability assay. After treatment of HUVEC cultures with the compound of formula (II), 96-well plates were pulsed with 1 μCi of ^3H-thymidine for the final 6-18 hours of culture and then harvested with a semiautomatic cell harvester onto filters that bind the DNA. Samples were counted in a PerkinElmer Microbeta scintillation and luminescence counter (Trilux) to determine the amount of 3H-TdR uptake. The data was then transferred and processed using an Excel spreadsheet program to provide for the mean and standard deviation for % of control values. The results were analyzed by calculating IC50 values and including a table showing % of control values for each compound tested. There were several test drug concentrations with three treatment time points (2, 4, and 6 days) and 6 replicates for each test concentration as shown in FIG. 2. For the 6-day assay experiment, the culture media with different test concentration treatments was exchanged at Day 4."}, "[3]": {"system": "blood vessel density in Matrigel plugs (VEGF, FGFb, heparin as angiogenic stimuli)", "assay": "Matrigel Plug in vivo assay, intravenous dosing", "set-up": "species or system C57BL/6 mice", "experimental": "Female C57BL/6 mice around 10-weeks old and Matrigel Matrix High Concentration (from Becton Dickinson) mixed with 50 ng/mL VEGF, 50 ng/mL FGFb, and heparin 3 ng/mL as angiogenic stimuli were used for the Matrigel Plug experiments. There were two groups of mice, five mice in each group, with one group serving as a control and the second group expected to be treated once daily for 9 days with a compound of formula II at 100 mg/kg/dose (0.2 mL/10 g of body weight) by intravenous (i.v.) injection. The control group received oral saline as a vehicle. Each mouse received two Matrigel plugs. On Day 0, 500 μL Matrigel at 4° C. was subcutaneously injected to each side of the mouse, wherein the injection area was shaved. To increase the contact area of injected Matrigel into subcutaneous tissues and form a round shape plug, a wide subcutaneous pocket was formed by swaying the needle point right and left after a routine subcutaneous insertion. The injection was done rapidly with an appropriate size needle (21 G-25 G) to ensure the entire contents of the syringe were delivered in one plug. The injected Matrigel rapidly formed a single solid gel plug. […] Plugs from each group were collected at Day 12. The mice were euthanized and the mouse skin was pulled back to expose the plug. The plugs were dissected out and fixed in 10% formalin for histological analysis. Sections of 5 μm from paraffin-embedded plugs were stained with H&E. Blood vessel density in a cross sectional area of each Matrigel plug was analyzed using Image Pro-Plus software. For each group of mice, at least six Matrigel plugs were quantitatively analyzed to assess any statistical significant difference of microvessel density between groups. The quantitation of microblood vessel density using a compound of formula (II) is shown below."}, "P388 murine leukemia": {"system": "P388 murine leukemia", "assay": "Response of ip implanted P388 murine leukemia to ip and po administration", "type": "in vivo, mice", "settings": "for treatment-related deaths / increase in lifespan (ILS) / median day of death: qld×9; for increase in lifespan (ILS): p=0.000 vs vehicle; for median day of death: vehicle control 11.5", "description": "Mice were implanted ip with one million cells of P388 murine leukemia using a 23-gauge needle. The P388 tumor line was maintained as an in vivo passage. The day of tumor implantation was designated as day 0, with treatment beginning on day 1 following tumor implantation. A sufficient number of mice were implanted so that animals with body weights in a range as narrow as possible were selected for the trial.\nThe compound of formula (II) was formulated in saline on the first day of treatment (day 1) at a concentration of 40 mg/mL. This solution was then diluted to the lower dosing concentrations of 30, 20, and 5 mg/mL. Enough of the compound of formula (II) was prepared on day 1 for the entire dosing period. Each dosing solution was then aliquoted for daily treatments, frozen at −20° C., and thawed on each day of injection. All injections were administered on the basis of exact body weight with the injection volume being 0.2 mL/10 g body weight.\nThe study consisted of four treatment groups of eight mice per group and one vehicle-treated control group with ten mice, for a total of 42 mice on the first day of treatment. The study design called for the compound of formula (II) to be administered once a day for nine consecutive days (qld×9) by oral gavage at dosages of 800, 600, and 400 mg/kg/dose and by ip injection at a dosage of 100 mg/kg/dose. The control group (group 1) was treated with the vehicle (saline), which was administered po on a qld×9 injection schedule.\nThe study was terminated 17 days after tumor implantation. Any animal that became moribund was euthanized prior to study termination.\nNumber of nonspecific deaths, median days of death, and the increase in lifespan based on the median day of death and expressed as a percentage (% ILS).\nThe individual animals' survival time was used as the endpoint in a life tables analysis (stratified Kaplan-Meier estimation followed by the Mantel-Haenszel log-rank test) in order to statistically compare the survival data between groups."}, "[4]": {"system": "blood vessel density in Matrigel plugs", "assay": "Matrigel Plug in vivo assay, oral dosing", "settings": "350 mg/kg/dose oral, once daily for 9 days, plugs Day 14, male CD2F1 mice", "experimental": "Male CD2F1 mice were used for the Matrigel Plug experiment. There were two groups of mice, five mice in each group, with one group serving as a control and the second group was treated once daily for 9 days with a compound of formula II at 350 mg/kg/dose (0.2 mL/10 g of body weight) by oral administration in a saline solution. The control group received oral saline as a vehicle. Each mouse received two Matrigel plugs. On Day 0, 500 μL Matrigel at 4° C. was subcutaneously injected to each side of the mouse, wherein the injection area was shaved. The injection was done rapidly with an appropriate size needle (21 G-25 G) to ensure the entire contents of the syringe were delivered in one plug. The injected Matrigel rapidly formed a single solid gel plug. On Day 14, the mice were euthanized and the mouse skin was pulled back to expose the plug. The plugs were dissected out and fixed in 10% formalin for histological analysis. Sections of 5 μm from paraffin-embedded plugs were stained with haematoxylin and eosin (H&E) stain. Blood vessel density in a cross sectional area of each Matrigel plug was analyzed using Image Pro-Plus software. Each of the plugs was fixed in 10% formalin."}},
  "note": "Where “and” joins values, the source holds several entries; their conditions need not be identical. Identical values can stand only once.",
  "data": [
    {"compound": "C[As](C)SCC(NC(=O)CCC(N)C(=O)O)C(=O)NCC(=O)O", "note": "(stereo not drawn) [Compound of Formula (II)]", "values": [
      {"measurement": "IC50", "setting": "HUVEC (Endothelia) [1]; 48 h, Day 2", "value": "< 1500", "unit": "µM"},
      {"measurement": "IC50", "setting": "HUVEC (Endothelia) [1]; 96 h, Day 4", "value": "< 1000", "unit": "µM"},
      {"measurement": "IC50", "setting": "HUVEC (Endothelia) [1]; 144 h, Day 6", "value": "< 500", "unit": "µM"},
      {"measurement": "IC50", "setting": "LL47 (Fibroblast); 48 h, Day 2", "value": "< 5000", "unit": "µM"},
      {"measurement": "IC50", "setting": "LL47 (Fibroblast); 96 h, Day 4", "value": "< 2000", "unit": "µM"},
      {"measurement": "IC50", "setting": "LL47 (Fibroblast); 144 h, Day 6", "value": "< 1500", "unit": "µM"},
      {"measurement": "IC50", "setting": "HUVEC (Endothelia) [2]; Day 2", "value": "< 100", "unit": "µM"},
      {"measurement": "IC50", "setting": "HUVEC (Endothelia) [2]; Day 4", "value": "< 1000", "unit": "µM"},
      {"measurement": "IC50", "setting": "HUVEC (Endothelia) [2]; Day 6", "value": "< 500", "unit": "µM"},
      {"measurement": "toxicity to C57BL/6 mice", "setting": "[3]; 100 mg/kg/dose i.v. once daily, doses 6 and 8 skipped", "value": "higher than expected toxicity"},
      {"measurement": "microblood vessel density, individual animal", "setting": "[3]; 100 mg/kg/dose i.v., 7 doses, plugs collected Day 12, female C57BL/6 mice, animals #1-#4", "value": "3 and 2 (2×) and 0"},
      {"measurement": "microblood vessel density, Average", "setting": "[3]; 100 mg/kg/dose i.v., 7 doses, plugs collected Day 12, female C57BL/6 mice, control average 48.8", "value": 1.75},
      {"measurement": "increase in lifespan, in words", "setting": "P388 murine leukemia; 100 mg/kg/dose ip", "value": "tolerated and resulted in a minimal increase in lifespan"},
      {"measurement": "treatment-related deaths", "setting": "P388 murine leukemia; 100 mg/kg/dose ip", "value": "tolerated without treatment-related deaths"},
      {"measurement": "increase in lifespan (ILS)", "setting": "P388 murine leukemia; 100 mg/kg/dose ip", "value": 26, "unit": "%"},
      {"measurement": "median day of death", "setting": "P388 murine leukemia; 100 mg/kg/dose ip", "value": 14.5, "unit": "days"},
      {"measurement": "increase in lifespan, in words", "setting": "P388 murine leukemia; 400 mg/kg/dose po", "value": "tolerated and elicited a minimal increase in lifespan"},
      {"measurement": "treatment-related deaths", "setting": "P388 murine leukemia; 400 mg/kg/dose po", "value": "No treatment-related deaths"},
      {"measurement": "increase in lifespan (ILS)", "setting": "P388 murine leukemia; 400 mg/kg/dose po", "value": 30, "unit": "%"},
      {"measurement": "median day of death", "setting": "P388 murine leukemia; 400 mg/kg/dose po", "value": 15.0, "unit": "days"},
      {"measurement": "reduction of angiogenesis compared to the control", "setting": "[4]", "value": "effective in reducing angiogenesis"}
    ]}
  ]
}
